From patent US20250368644A1, “DURLOBACTAM CRYSTALLINE FORMS” (Entasis Therapeutics Limited, priority 2022, published 2025)
Structures can show the parent of a compound that is named as a salt.

Tests used:
[1] = Stability of DUR, its salts and crystalline forms (observations in words); details: for Stability of the crystalline form: DUR-Ca polymorphs, solvent systems, Calcium salt
Method: (§1) Attempts were undertaken to form DUR-Ca via salt metathesis by slurry reaction of DUR-TBA salt with six calcium salts (CaCl2), CaBr2, Ca(BF4)2. Ca(OAc)2, Calcium D-gluconate and Calcium citrate) to find an alternative method to the ion exchange resin, which is very time consuming and costly to scale up.
A range of crystallization experiments were carried out, including evaporations, ambient temperature slurries, vapor stress at ambient temperature and temperature cycling, in many different solvents, or solvent mixtures, using crystalline DUR-Ca, DUR-TBA, and DUR-TEA salts as seeds.

[2] = system: β-lactamases commonly found in A. baumannii; details: preclinical studies, background statement; cited from earlier work
[3] = Salt slurry experiments with DUR-Ca Form A (solid form after slurry in solvents); format: physicochemical; details: 3 days
Text: DUR-Ca Form A was slurred in 26 solvents for 3 days. A new distinct form (assigned as Form C) was obtained in most of solvents (Table 19).

[4] = Solubility of the salt in solvents (observations in words); format: physicochemical
Text: as §1

Structure (SMILES): CC1=C[C@@H]2CN(C(=O)N2OS(=O)(=O)O)[C@@H]1C(N)=O [DUR, Durlobactam]
- Chemical stability (degradation) ([1]; free acid): readily degraded
- Inhibition of β-lactamases [2]: inhibit the β-lactamases commonly found in A. baumannii

Structure (SMILES): CC1=C[C@@H]2CN(C(=O)N2OS(=O)(=O)O)[C@@H]1C(N)=O [DUR-Ca Form A, Durlobactam Calcium salt]
- Result (solid form after slurry) ([3]; Slurry 1, Methanol): Form C
- Result (solid form after slurry) ([3]; Slurry 2, Ethanol): Form C
- Result (solid form after slurry) ([3]; Slurry 3, IPA): Form C
- Result (solid form after slurry) ([3]; Slurry 4, THF): Amorphous
- Result (solid form after slurry) ([3]; Slurry 5, EtOAc): Form C
- Result (solid form after slurry) ([3]; Slurry 6, Acetone): Form C
- Result (solid form after slurry) ([3]; Slurry 7, Isobutanol): Form C
- Result (solid form after slurry) ([3]; Slurry 8, Isopropyl Acetate): Form C
- Result (solid form after slurry) ([3]; Slurry 9, Acetonitrile): Form C
- Result (solid form after slurry) ([3]; Slurry 10, 2-Butanone): Form C
- Result (solid form after slurry) ([3]; Slurry 11, Toluene): Mixture of Form A and C
- Result (solid form after slurry) ([3]; Slurry 13, Tert-butyl methyl ether): Form C
- Result (solid form after slurry) ([3]; Slurry 14, Propanol): Form C
- Result (solid form after slurry) ([3]; Slurry 15, Isopentanol): Form C
- Result (solid form after slurry) ([3]; Slurry 16, Butyl acetate): Form C
- Result (solid form after slurry) ([3]; Slurry 17, Ethyl Formate): Form C
- Result (solid form after slurry) ([3]; Slurry 18, 1,4-dioxane): Amorphous
- Result (solid form after slurry) ([3]; Slurry 19, Butanol): Form C
- Result (solid form after slurry) ([3]; Slurry 20, Heptane): Form C
- Result (solid form after slurry) ([3]; Slurry 21, Pentane): Form C
- Result (solid form after slurry) ([3]; Slurry 22, Cyclohexane): Form C
- Result (solid form after slurry) ([3]; Slurry 23, Methylisobutyl Ketone): Form C
- Result (solid form after slurry) ([3]; Slurry 24, Xylene): Form C
- Result (solid form after slurry) ([3]; Slurry 25, Isobutyl acetate): Form C
- Result (solid form after slurry) ([3]; Slurry 26, Ethyl ether): Form C
- Stability of the crystalline form ([1]; listed as Crystalline form A): unstable in certain solvent systems

Structure (SMILES): CC1=C[C@@H]2CN(C(=O)N2OS(=O)(=O)O)[C@@H]1C(N)=O [DUR-Ca Form C, Durlobactam Calcium salt]
- Stability of the crystalline form ([1]; listed as crystalline form C): more stable

Structure (SMILES): CC1=C[C@@H]2CN(C(=O)N2OS(=O)(=O)O)[C@@H]1C(N)=O [DUR-TBA, Durlobactam Tetrabutylammonium salt]
- Solubility ([4]; EtOH): soluble
- Solubility ([4]; most solvents): soluble in most solvents

Structure (SMILES): CC1=CC2CN(C(=O)N2OS(=O)(=O)O)C1C(N)=O.c1ccncc1 (centres unmarked) [pyridine salt]
- Stability of the salt as isolated solid [1]: not stable
